Molecular target: T1, dihydrolipoamide acyltransferase (DlaT) (Mycobacterium tuberculosis, UniProt P9WIS7)
T1 sequence (P9WIS7 1-553): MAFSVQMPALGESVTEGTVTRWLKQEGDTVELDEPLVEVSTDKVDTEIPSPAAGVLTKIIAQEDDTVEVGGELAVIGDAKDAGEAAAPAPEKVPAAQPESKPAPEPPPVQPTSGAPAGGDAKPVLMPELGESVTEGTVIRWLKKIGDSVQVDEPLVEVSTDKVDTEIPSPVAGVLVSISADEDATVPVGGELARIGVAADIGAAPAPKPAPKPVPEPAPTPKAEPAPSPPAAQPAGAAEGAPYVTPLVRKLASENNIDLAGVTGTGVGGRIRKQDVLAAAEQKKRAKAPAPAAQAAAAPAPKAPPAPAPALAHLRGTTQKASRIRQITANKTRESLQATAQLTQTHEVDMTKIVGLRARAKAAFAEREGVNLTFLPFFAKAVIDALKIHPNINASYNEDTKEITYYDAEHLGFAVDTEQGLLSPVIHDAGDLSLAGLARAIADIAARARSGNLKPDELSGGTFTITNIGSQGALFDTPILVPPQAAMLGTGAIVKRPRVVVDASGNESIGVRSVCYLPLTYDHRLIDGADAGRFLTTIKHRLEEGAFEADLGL
Experiment: DlaT inhibition (Dlat IC50); DTNB peroxidase assay with Lpd, DlaT and AhpD
Assay type: biochemical
Conditions: Table 1, Compounds A1 to A294; read-out: Dlat IC50 category

SMILES	IC50 [µM]
CC(C)(C)OC(=O)Nc1ccccc1-c1ccc(C=C2SC(=S)N(c3cc(C(=O)O)ccc3F)C2=O)o1 [Compound A164]	11 to 40
Cc1ccc(-c2ccc(C=C3SC(=S)N(c4cc(C(=O)O)ccc4F)C3=O)o2)cc1 [Compound A165]	< 10
COc1ccc(-c2ccc(C=C3SC(=S)N(c4cc(C(=O)O)ccc4F)C3=O)o2)cc1 [Compound A166]	< 10
COc1ccc(-c2ccc(C=C3SC(=S)N(c4cccc(C(=O)O)c4)C3=O)o2)c(OC)c1 [Compound A167]	< 10
COc1ccc(-c2ccc(C=C3SC(=S)N(c4cc(C(=O)O)ccc4F)C3=O)o2)c(OC)c1 [Compound A168]	< 10
Cc1cc(Cl)ccc1-c1ccc(C=C2SC(=S)N(c3cccc(C(=O)O)c3)C2=O)o1 [Compound A169]	< 10
Cc1cc(Cl)ccc1-c1ccc(C=C2SC(=S)N(c3cc(C(=O)O)ccc3F)C2=O)o1 [Compound A170]	< 10
Cc1cccc(C)c1-c1ccc(C=C2SC(=S)N(c3cccc(C(=O)O)c3)C2=O)o1 [Compound A171]	11 to 40
Cc1cccc(C)c1-c1ccc(C=C2SC(=S)N(c3cc(C(=O)O)ccc3F)C2=O)o1 [Compound A172]	< 10
Cc1ccccc1-c1cccc(C=C2SC(=S)N(c3cccc(C(=O)O)c3)C2=O)c1 [Compound A173]	11 to 40
Cc1ccccc1-c1cccc(C=C2SC(=S)N(c3cc(C(=O)O)ccc3F)C2=O)c1 [Compound A174]	< 10
COc1cc(F)ccc1-c1ccc(C=C2SC(=S)N(c3cccc(C(=O)O)c3)C2=O)o1 [Compound A175]	< 10
COc1cc(F)ccc1-c1ccc(C=C2SC(=S)N(c3cc(C(=O)O)ccc3F)C2=O)o1 [Compound A176]	< 10
COc1ccc(-c2ccc(C=C3SC(=S)N(c4cccc(C(=O)O)c4)C3=O)o2)cc1F [Compound A177]	< 10
COc1ccc(-c2ccc(C=C3SC(=S)N(c4cc(C(=O)O)ccc4F)C3=O)o2)cc1F [Compound A178]	< 10
O=C(O)c1cccc(N2C(=O)C(=Cc3ccc(-c4ccccc4OCc4ccccc4)o3)SC2=S)c1 [Compound A179]	< 10
O=C(O)c1ccc(F)c(N2C(=O)C(=Cc3ccc(-c4ccccc4OCc4ccccc4)o3)SC2=S)c1 [Compound A180]	< 10
Cc1cc(C)c(-c2ccc(C=C3SC(=S)N(c4cc(C(=O)O)ccc4F)C3=O)o2)c(C)c1 [Compound A181]	< 10
Cc1cc(N(C)C)ccc1-c1ccc(C=C2SC(=S)N(c3cccc(C(=O)O)c3)C2=O)o1 [Compound A182]	< 10
Cc1cc(N(C)C)ccc1-c1ccc(C=C2SC(=S)N(c3cc(C(=O)O)ccc3F)C2=O)o1 [Compound A183]	11 to 40
Cc1cc(C)c(-c2ccc(C=C3SC(=S)N(c4cccc(C(=O)O)c4)C3=O)o2)c(C)c1 [Compound A184]	11 to 40
CSc1ccccc1-c1ccc(C=C2SC(=S)N(c3cccc(C(=O)O)c3)C2=O)o1 [Compound A185]	< 10
CSc1ccccc1-c1ccc(C=C2SC(=S)N(c3cc(C(=O)O)ccc3F)C2=O)o1 [Compound A186]	< 10

SMILES	IC50 [µM]
Cc1ccccc1-c1ccc(C=C2SC(=S)N(c3cccc(C(=O)O)c3)C2=O)s1 [Compound A187]	11 to 40
Cc1ccccc1-c1ccc(C=C2SC(=S)N(c3cc(C(=O)O)ccc3F)C2=O)s1 [Compound A188]	< 10
O=C(O)c1cccc(N2C(=O)C(=Cc3ccc(-c4ccccc4Cl)s3)SC2=S)c1 [Compound A189]	< 10
O=C(O)c1ccc(F)c(N2C(=O)C(=Cc3ccc(-c4ccccc4Cl)s3)SC2=S)c1 [Compound A190]	< 10
CN(C)c1ccc(-c2ccc(C=C3SC(=S)N(c4cc(C(=O)O)ccc4F)C3=O)o2)cc1 [Compound A191]	< 10
O=C(O)c1cccc(N2C(=O)C(=Cc3ccccc3-c3ccccc3OCc3ccccc3Cl)SC2=S)c1 [Compound A192]	11 to 40
O=C(O)c1cccc(N2C(=O)C(=Cc3ccc(-c4ccccc4Oc4ccccc4)o3)SC2=S)c1 [Compound A193]	< 10
O=C(O)c1ccc(F)c(N2C(=O)C(=Cc3ccc(-c4ccccc4Oc4ccccc4)o3)SC2=S)c1 [Compound A194]	< 10
O=C(O)c1cccc(N2C(=O)C(=Cc3ccc(-c4ccccc4F)s3)SC2=S)c1 [Compound A195]	11 to 40
O=C(O)c1cccc(N2C(=O)C(=Cc3ccc(-c4ccccc4F)s3)SC2=S)c1 [Compound A196]	< 10
O=C(O)c1ccc(F)c(N2C(=O)C(=Cc3ccccc3-c3ccccc3OCc3ccccc3Cl)SC2=S)c1 [Compound A197]	< 10
Cc1cccc(C)c1-c1ccc(C=C2SC(=S)N(c3cccc(C(=O)O)c3)C2=O)o1 [Compound A198]	< 10
O=C(O)c1cccc(N2C(=O)C(=Cc3ccc(-c4ccc(C(F)(F)F)cc4)o3)SC2=S)c1 [Compound A200]	< 10
O=C(O)c1ccc(F)c(N2C(=O)C(=Cc3ccc(-c4ccc(C(F)(F)F)cc4)o3)SC2=S)c1 [Compound A201]	< 10
O=C(O)c1cccc(N2C(=O)C(=Cc3ccc(-c4cccc(-c5ccccc5)c4)o3)SC2=S)c1 [Compound A202]	< 10
O=C(O)c1ccc(F)c(N2C(=O)C(=Cc3ccc(-c4cccc(-c5ccccc5)c4)o3)SC2=S)c1 [Compound A203]	< 10
CC(=O)Nc1ccc(-c2ccc(C=C3SC(=S)N(c4cccc(C(=O)O)c4)C3=O)o2)cc1 [Compound A204]	< 10
CC(=O)Nc1ccc(-c2ccc(C=C3SC(=S)N(c4cc(C(=O)O)ccc4F)C3=O)o2)cc1 [Compound A205]	< 10
CC(=O)c1ccc(-c2ccc(C=C3SC(=S)N(c4cccc(C(=O)O)c4)C3=O)o2)cc1 [Compound A206]	< 10
CC(=O)c1ccc(-c2ccc(C=C3SC(=S)N(c4cc(C(=O)O)ccc4F)C3=O)o2)cc1 [Compound A207]	< 10
O=C(O)c1ccc(F)c(N2C(=O)C(=Cc3ccc(-c4ccccc4F)o3)SC2=S)c1 [Compound A208]	11 to 40
O=C(O)c1cccc(N2C(=O)C(=Cc3ccc(-c4cccc(CO)c4)o3)SC2=S)c1 [Compound A209]	< 10
O=C(O)c1ccc(F)c(N2C(=O)C(=Cc3ccc(-c4cccc(CO)c4)o3)SC2=S)c1 [Compound A210]	< 10

SMILES	IC50 [µM]
O=C(O)c1cccc(N2C(=O)C(=Cc3ccc(-c4ccc(F)cc4)o3)SC2=S)c1 [Compound A211]	< 10
O=C(O)c1ccc(F)c(N2C(=O)C(=Cc3ccc(-c4ccc(F)cc4)o3)SC2=S)c1 [Compound A212]	< 10
CCOc1ccc(-c2ccc(C=C3SC(=S)N(c4cccc(C(=O)O)c4)C3=O)o2)cc1 [Compound A217]	11 to 40
CCOc1ccc(-c2ccc(C=C3SC(=S)N(c4cc(C(=O)O)ccc4F)C3=O)o2)cc1 [Compound A218]	< 10
O=C(O)c1cccc(N2C(=O)C(=Cc3ccc(-c4ccc(OCc5ccccc5)cc4)o3)SC2=S)c1 [Compound A219]	11 to 40
O=C(O)c1ccc(F)c(N2C(=O)C(=Cc3ccc(-c4ccc(OCc5ccccc5)cc4)o3)SC2=S)c1 [Compound A220]	11 to 40
O=C(O)c1cc(N2C(=O)C(=Cc3ccc(-c4ccccc4Cl)o3)SC2=S)cc(C(F)(F)F)c1 [Compound A221]	11 to 40
O=C(O)c1cc(N2C(=O)C(=Cc3ccc(-c4ccccc4F)o3)SC2=S)cc(C(F)(F)F)c1 [Compound A222]	< 10
O=C(O)c1cc(N2C(=O)C(=Cc3ccc(-c4ccc(Cl)cc4)o3)SC2=S)cc(C(F)(F)F)c1 [Compound A223]	11 to 40
Cc1ccc(-c2ccc(C=C3SC(=S)N(c4cc(C(=O)O)cc(C(F)(F)F)c4)C3=O)o2)cc1 [Compound A224]	< 10
CCc1ccc(-c2ccc(C=C3SC(=S)N(c4cc(C(=O)O)cc(C(F)(F)F)c4)C3=O)o2)cc1 [Compound A225]	11 to 40
CCCCOc1ccc(-c2ccc(C=C3SC(=S)N(c4cccc(C(=O)O)c4)C3=O)o2)cc1 [Compound A226]	> 41
CCCCOc1ccc(-c2ccc(C=C3SC(=S)N(c4cc(C(=O)O)ccc4F)C3=O)o2)cc1 [Compound A227]	11 to 40
CS(=O)(=O)c1ccc(-c2ccc(C=C3SC(=S)N(c4cccc(C(=O)O)c4)C3=O)o2)cc1 [Compound A228]	< 10
CS(=O)(=O)c1ccc(-c2ccc(C=C3SC(=S)N(c4cc(C(=O)O)ccc4F)C3=O)o2)cc1 [Compound A229]	11 to 40
O=C(O)c1cc(C(=O)O)cc(N2C(=O)C(=Cc3ccc(-c4ccccc4Cl)o3)SC2=S)c1 [Compound A230]	< 10
O=C(O)c1cc(C(=O)O)cc(N2C(=O)C(=Cc3ccc(-c4ccccc4F)o3)SC2=S)c1 [Compound A231]	> 41
O=C(O)c1cc(C(=O)O)cc(N2C(=O)C(=Cc3ccc(-c4ccc(Cl)cc4)o3)SC2=S)c1 [Compound A232]	11 to 40
CCc1ccc(-c2ccc(C=C3SC(=S)N(c4cc(C(=O)O)cc(C(=O)O)c4)C3=O)o2)cc1 [Compound A233]	< 10
Cc1ccccc1-c1ccc(C=C2SC(=S)N(c3cc(C(=O)O)cc(C(F)(F)F)c3)C2=O)o1 [Compound A234]	< 10
Cc1ccccc1-c1ccc(C=C2SC(=S)N(c3cc(C(=O)O)cc(C(=O)O)c3)C2=O)o1 [Compound A235]	< 10
CSc1cccc(-c2ccc(C=C3SC(=S)N(c4cccc(C(=O)O)c4)C3=O)o2)c1 [Compound A236]	< 10

Source: patent US8338465B2, “Cyclic carboxylic acid rhodanine derivatives for the treatment and prevention of tuberculosis” (priority 2006, dated 2012)
